Earlier results on two molecules are cited in US6632929B1, “Avidin derivatives and uses thereof” (Yeda Research and Development Co. LTD, priority 1998, dated 2003).

The target of one data set is streptavidin (Streptomyces avidinii, UniProt P22629). The note with it: streptavidin-biotin complex; cited from earlier work.
The target in data set [1] is T1, avidin (Gallus gallus, UniProt P02701).
T1 construct: Egg-white avidin was provided by STC laboratories (Winnipeg, Canada); purchased STC laboratories (Winnipeg, Canada); host or cells: egg white
As to conditions: avidin-biotin complex; cited from earlier work.

Data set [2] addresses T1, avidin. As to conditions: non-covalent, same biotin-binding site (Green, 1965); read-out: affinity; cited from earlier work.

T1 sequence (P02701 25-152): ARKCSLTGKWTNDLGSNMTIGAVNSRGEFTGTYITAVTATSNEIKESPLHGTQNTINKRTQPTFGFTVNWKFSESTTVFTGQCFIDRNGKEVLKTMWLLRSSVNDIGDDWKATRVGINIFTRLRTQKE
Chain of streptavidin (P22629 25-183): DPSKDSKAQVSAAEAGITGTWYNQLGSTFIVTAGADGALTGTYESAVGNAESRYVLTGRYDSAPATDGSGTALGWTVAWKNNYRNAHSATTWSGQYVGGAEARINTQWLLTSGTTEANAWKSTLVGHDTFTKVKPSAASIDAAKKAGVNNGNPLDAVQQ

As for `O=C(O)CCCC[C@@H]1SC[C@@H]2NC(=O)N[C@@H]21` [biotin], the affinity constant on streptavidin is 2.5e+13 M⁻¹; at avidin [1] it was 1.6e+15 M⁻¹. With `O=C(O)c1ccccc1N=Nc1ccc(O)cc1` [4′-hydroxyazobenzene-2-carboxylic acid], the Kd at avidin [2] was 1 to 10 µM.
